Measurements as given in ChEMBL document CHEMBL1130546, “Oligopresentation of protease inhibitors with -cyclodextrin as template” (Bioorg Med Chem Lett, 1997).
Where a SMILES comes first, the peptide text is derived from it. [ ]: non-standard residue; d: D form. Nle = CCCC[C@H](N)C(=O)O

How the values were obtained:
Cathepsin B = Cathepsin B (Homo sapiens, UniProt P07858); experiment: Equilibrium dissociation constant for the inhibition of human cathepsin B was determined
[1] = target: T1, Calpain-1 catalytic subunit (Homo sapiens, UniProt P07384); experiment: Equilibrium dissociation constant for the inhibition of human Mu-calpain was determined
T1 sequence (P07384 whole entry): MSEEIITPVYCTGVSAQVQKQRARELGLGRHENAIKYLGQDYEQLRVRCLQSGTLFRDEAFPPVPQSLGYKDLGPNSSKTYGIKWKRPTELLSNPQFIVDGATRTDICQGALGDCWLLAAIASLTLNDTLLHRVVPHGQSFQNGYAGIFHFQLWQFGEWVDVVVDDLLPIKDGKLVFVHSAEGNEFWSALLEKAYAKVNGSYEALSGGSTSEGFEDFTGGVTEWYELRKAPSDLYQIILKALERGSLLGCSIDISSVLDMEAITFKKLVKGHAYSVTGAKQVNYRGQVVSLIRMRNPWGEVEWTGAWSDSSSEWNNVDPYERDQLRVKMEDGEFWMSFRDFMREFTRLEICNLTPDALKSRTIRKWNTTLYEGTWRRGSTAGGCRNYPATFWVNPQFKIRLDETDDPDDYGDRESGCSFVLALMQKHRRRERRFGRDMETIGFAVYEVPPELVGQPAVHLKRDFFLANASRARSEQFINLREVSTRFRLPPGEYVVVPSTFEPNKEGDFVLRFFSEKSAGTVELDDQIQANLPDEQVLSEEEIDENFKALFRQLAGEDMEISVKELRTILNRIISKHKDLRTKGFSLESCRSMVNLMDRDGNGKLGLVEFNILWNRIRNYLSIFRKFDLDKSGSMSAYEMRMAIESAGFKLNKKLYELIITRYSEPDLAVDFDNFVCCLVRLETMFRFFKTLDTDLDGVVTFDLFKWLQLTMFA

Q: CCCC[C@H](NC(=O)[C@H](CC(C)C)NC(=O)[C@H](CC(C)C)NC(C)=O)C(=O)O (Ac-Leu-Leu-[Nle]-OH) was tested. Which Ki (Cathepsin B) did it give?
A: 1 nM

Q: What about the Ki [1] of the same compound?
A: 3.4 nM
